Assay results published in patent US10294202B2, “Pyrrolidinones as herbicides” (FMC Corporation, priority 2013, dated 2019).

Assays:
[1] = test system: wheat; assay: Test A pre-/postemergence herbicide test; assay type: in vivo, Triticum aestivum; conditions: Postemergence
How it was run: (§1)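 Approximately 10 days after treatment in the greenhouse, plants were compared with untreated controls and given a 0–100 visual injury rating. Applications: preemergence directed soil spray; postemergence on 2–10 cm plants at the one- to two-leaf stage.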

[2] = test system: morningglory; assay: Test C pre-/postemergence herbicide test; assay type: in vivo, Ipomoea coccinea
How it was run: (§2)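 Plants grown and held in a greenhouse for 13 to 15 days post-spray, then rated 0–100 by visual comparison with controls. Pre treatments targeted seeds in loam and sand; post treatments targeted 1- to 4-leaf plants in peat-based potting medium.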

[3] = test system: oilseed rape; assay: Test C pre-/postemergence herbicide test; assay type: in vivo, Brassica napus
How it was run: as §2

[4] = test system: oat, wild; assay: Test C pre-/postemergence herbicide test; assay type: in vivo, Avena fatua; conditions: Postemergence
How it was run: as §2

[5] = test system: corn; assay: Test A pre-/postemergence herbicide test; assay type: in vivo, Zea mays; conditions: Postemergence
How it was run: as §1

[6] = test system: pigweed; assay: Test A pre-/postemergence herbicide test; assay type: in vivo, Amaranthus retroflexus
How it was run: as §1

[7] = test system: waterhemp; assay: Test C pre-/postemergence herbicide test; assay type: in vivo, Amaranthus rudis
How it was run: as §2

[8] = test system: barnyardgrass; assay: Test B flooded paddy test; assay type: in vivo, Echinochloa crus-galli; conditions: 500 g ai/ha, Flood; scale of 0 to 100 where 0 is no effect and 100 is complete control
How it was run: (§3)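 Plants were grown to the 2-leaf stage, then pots were flooded to 3 cm above the soil and compound was applied directly into the paddy water, with that depth held throughout. After 13 to 15 days in a greenhouse, injury was rated visually against untreated controls on a 0 to 100 scale (100 = complete control).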

[9] = test system: sedge, umbrella; assay: Test B flooded paddy test; assay type: in vivo, Cyperus difformis; conditions: 500 g ai/ha, Flood; scale of 0 to 100 where 0 is no effect and 100 is complete control
How it was run: as §3

[10] = test system: wheat (winter wheat); assay: Test C pre-/postemergence herbicide test; assay type: in vivo, Triticum aestivum
How it was run: as §2

[11] = test system: ragweed; assay: Test C pre-/postemergence herbicide test; assay type: in vivo, Ambrosia elatior
How it was run: as §2

[12] = test system: rice; assay: Test B flooded paddy test; assay type: in vivo, Oryza sativa; conditions: 500 g ai/ha, Flood; scale of 0 to 100 where 0 is no effect and 100 is complete control
How it was run: as §3

[13] = 125 g ai/ha, visual rating on 0 to 100 scale (0 no effect, 100 complete control), approx. 10 days
[14] = 500 g ai/ha, 0 to 100 scale (0 no effect, 100 complete control)
[15] = Postemergence, 31 g ai/ha, scale 0 to 100 (0 no effect, 100 complete control)
[16] = Postemergence, 62 g ai/ha, scale 0 (no effect) to 100 (complete control)
[17] = Postemergence, 125 g ai/ha, scale 0 to 100 (0 no effect, 100 complete control)
[18] = Postemergence, 250 g ai/ha, scale 0 to 100 (0 no effect, 100 complete control)
[19] = Preemergence, 31 g ai/ha, scale 0 to 100, 0 is no effect and 100 is complete control
[20] = Preemergence, 62 g ai/ha, scale 0 to 100 (0 no effect, 100 complete control)
[21] = Preemergence, 125 g ai/ha, scale 0 to 100

For `O=C1NCC(c2cccc(Br)c2)C1C(=O)Nc1ccc(F)c(F)c1F` (stereo not shown) [Compound 310], the “Plant response rating, Wheat” value [1, 13] was 30, the “Plant response rating, Wheat” value [1, 14] was 50 and the “Plant response rating, Morningglory” value [2, 15] was 10. The “Plant response rating, Morningglory” value [2, 16] was 0, the “Plant response rating, Morningglory” value [2, 17] was 10 and the “Plant response rating, Morningglory” value [2, 18] was 70. For the same compound, the “Morningglory plant response rating” value [2, 19] was 0, the “Morningglory plant response rating” value [2, 20] was 0 and the “Plant response rating, Morningglory” value [2, 21] was 5. The “Plant response rating (scale of 0 to 100), Morningglory” value ([2]; Preemergence, 250 g ai/ha) was 5, the “Plant response rating, Oilseed Rape” value [3, 15] was 0 and the “Plant response rating, Oilseed Rape” value [3, 16] was 0. For the same compound, the “Plant response rating, Oilseed Rape” value [3, 17] was 0, the “Plant response rating, Oilseed Rape” value [3, 18] was 40 and the “Oilseed Rape plant response rating” value [3, 19] was 0. The “Oilseed Rape plant response rating” value [3, 20] was 5, the “Plant response rating, Oilseed Rape” value [3, 21] was 40 and the “Plant response rating (scale of 0 to 100), Oilseed Rape” value ([3]; Preemergence, 250 g ai/ha) was 85. The “Plant response rating, Oat, Wild” value ([4]; 31 g ai/ha, scale 0 to 100 (0 no effect, 100 complete control)) was 0, the “Plant response rating, Oat, Wild” value ([4]; 62 g ai/ha, scale 0 (no effect) to 100 (complete control)) was 0 and the “Plant response rating, Oat, Wild” value ([4]; 125 g ai/ha, scale 0 to 100 (0 no effect, 100 complete control)) was 0. The “Plant response rating, Oat, Wild” value ([4]; 250 g ai/ha, scale 0 to 100 (0 no effect, 100 complete control)) was 0, the “Plant response rating, Corn” value [5, 13] was 20 and the “Plant response rating, Corn” value [5, 14] was 50. The “Plant response rating, Pigweed” value ([6]; Postemergence, 125 g ai/ha, visual rating on 0 to 100 scale (0 no effect, 100 complete control), approx. 10 days) was 0, the “Plant response rating, Pigweed” value ([6]; Postemergence, 500 g ai/ha, 0 to 100 scale (0 no effect, 100 complete control)) was 0 and the “Plant response rating, Pigweed” value ([6]; Preemergence, 125 g ai/ha, 0 to 100 scale where 0 is no effect and 100 is complete control) was 40. For the same compound, the “Pigweed plant response rating” value ([6]; Preemergence, 500 g ai/ha, visual rating on 0 to 100 scale (0 no effect, 100 complete control)) was 40, the “Plant response rating, Waterhemp” value [7, 15] was 5 and the “Plant response rating, Waterhemp” value [7, 16] was 10. For the same compound, the “Plant response rating, Waterhemp” value [7, 17] was 10, the “Plant response rating, Waterhemp” value [7, 18] was 10 and the “Waterhemp plant response rating” value [7, 20] was 0. For the same compound, the “Plant response rating, Waterhemp” value [7, 21] was 25, the “Plant response rating (scale of 0 to 100), Waterhemp” value ([7]; Preemergence, 250 g ai/ha) was 25 and the “Plant response rating, Barnyardgrass” value [8] was 60. The “Plant response rating, Sedge, Umbrella” value [9] was 0, the “Plant response rating, Wheat” value [10, 15] was 0 and the “Plant response rating, Wheat” value [10, 16] was 0. The “Plant response rating, Wheat” value [10, 17] was 0, the “Plant response rating, Wheat” value [10, 18] was 0 and the “Wheat plant response rating” value [10, 20] was 0. The “Plant response rating, Wheat” value [10, 21] was 0, the “Plant response rating (scale of 0 to 100), Wheat” value ([10]; Preemergence, 250 g ai/ha) was 10 and the “Plant response rating, Ragweed” value [11, 15] was 10. For the same compound, the “Plant response rating, Ragweed” value [11, 16] was 10, the “Plant response rating, Ragweed” value [11, 17] was 20 and the “Plant response rating, Ragweed” value [11, 18] was 60. For the same compound, the “Ragweed plant response rating” value [11, 20] was 0, the “Plant response rating, Ragweed” value [11, 21] was 5 and the “Plant response rating (scale of 0 to 100), Ragweed” value ([11]; Preemergence, 250 g ai/ha) was 35. For the same compound, the “Plant response rating, Rice” value [12] was 0.
